# ChEMBL document CHEMBL4011635 (J Med Chem, 2017)
# Activity calls are given as the source filed them. The calls are words filed in the database; no cut-off is given here.
# Key:
# [1] = Apparent permeability from basolateral to apical side in human Caco2 cells; format: ADME, cell-based; conditions: Caco-2
# [2] = Aqueous equilibrium solubility of compound in pH 6.8 solution by high throughput assay; format: physicochemical; conditions: aqueous pH 6.8 solution
# in vitro = conditions: human, Caco-2
# Complement factor D = Complement factor D (Homo sapiens, UniProt P00746); assay: Inhibition of recombinant human complement factor D catalytic domain (G24 to A253 residues) expressed in expressed in Escherichia coli(Rosetta) using Z-Lys-thiobenzylester as substrate preincubated for 1 hr followed by substrate addition by 2,4-dinitrobenzenesulfonyl-2,7-desmethyl-fluorecein probe based spectrofluorimetric assay
# Salmonella typhimurium = assay: Genotoxicity in Salmonella typhimurium by Ames test; format: toxicity; conditions: salmonella enterica subsp. enterica serovar typhimurium
# Lymphocyte = assay: Genotoxicity in human primary lymphocytes by micronucleus test; format: toxicity, cell-based
# [3] = Clearance in Sprague-Dawley rat at 1 mg/kg, iv administered as bolus dose by LC-MS/MS analysis; format: ADME, organism-based; conditions: in vivo
# [4] = Terminal half life in Sprague-Dawley rat at 1 mg/kg, iv administered as bolus dose by LC-MS/MS analysis; format: ADME, organism-based; conditions: in vivo, read-out: beta t1/2 (converted)
# [5] = AUC (0 to 8 hrs) in Sprague-Dawley rat plasma at 10 mg/kg, po by LC-MS/MS analysis; format: ADME, organism-based; parameters: dose 10 mg/kg, time < 8 hr, route oral
# [6] = Cmax in Sprague-Dawley rat plasma at 10 mg/kg, po by LC-MS/MS analysis; format: ADME, organism-based; parameters: dose 10 mg/kg, route oral
# [7] = Oral bioavailability in Sprague-Dawley rat at 10 mg/kg by LC-MS/MS analysis; format: ADME, organism-based; conditions: in vivo
# [8] = Protein binding in human plasma; format: ADME, cell-free; conditions: read-out: PPB (converted)
# [9] = Drug uptake in Brown Norway rat plasma at 10 mg/kg, po administered as single dose via gavage after 6 hrs by HPLC-MS/MS analysis; format: ADME, organism-based
# [10] = Drug uptake in Brown Norway rat posterior eye cup at 10 mg/kg, po administered as single dose via gavage after 6 hrs by LC-MS/MS analysis; format: ADME, organism-based; conditions: read-out: Drug uptake
# [11] = Drug uptake in Brown Norway rat neural retina at 10 mg/kg, po administered as single dose via gavage after 6 hrs by LC-MS/MS analysis; format: ADME, organism-based; conditions: read-out: Drug uptake
# Mus musculus [12] = assay: In vivo inhibition of Ba generation in plasma of B6-Cfdtm1.1(CFD)Npa mouse at 30 mg/kg, po administered via gavage treated up to 24 hrs prior to test and LPS challenge up to 7.5 hrs prior to test measured up to 8 hrs; format: functional, organism-based
# Mus musculus [13] = assay: In vivo inhibition of complement activation in B6-Cfdtm1.1(CFD)Npa mouse assessed as decrease iC3b generation in eyes at 30 mg/kg, po administered via gavage treated up to 24 hrs prior to test and LPS challenge up to 7.5 hrs prior to test measured up to 12 hrs; format: functional, organism-based
# Cynomolgus monkey [14] = assay: In vivo inhibition of complement factor D in cynomolgus monkey assessed as decrease in zymosan-induced AP activation by measuring soluble MAC complex deposition in serum at 10 to 50 mg/kg, po administered as single dose via gavage measured 4 hrs post dose; format: functional, organism-based; conditions: Macaca fascicularis
# Cynomolgus monkey [15] = assay: In vivo inhibition of complement factor D in cynomolgus monkey assessed as serum concentration required to show complete reduction in zymosan-induced AP activation by measuring soluble MAC complex deposition at 10 to 50 mg/kg, po administered as single dose via gavage measured at 4 to 24 hrs post dose by LC-MS analysis; format: functional, Macaca fascicularis
# Mus musculus [16] = assay: In vivo inhibition of complement activation in B6-Cfdtm1.1(CFD)Npa mouse assessed as decrease C3d generation in eyes at 30 mg/kg, po administered via gavage treated up to 24 hrs prior to test and LPS challenge up to 7.5 hrs prior to test measured up to 12 hrs; format: functional, organism-based
# Cynomolgus monkey [17] = assay: In vivo inhibition of complement factor D in cynomolgus monkey assessed as decrease in zymosan-induced AP activation by measuring soluble MAC complex deposition in serum administered as single dose via oral gavage measured at 4 to 24 hrs post dose; format: functional, organism-based; conditions: Macaca fascicularis
# [18] = molecular target: Voltage-gated inwardly rectifying potassium channel KCNH2 (Homo sapiens, UniProt Q12809)
# Cytochrome P450 3A4 = Cytochrome P450 3A4 (Homo sapiens, UniProt P08684)
# Cytochrome P450 2D6 = Cytochrome P450 2D6 (Homo sapiens, UniProt P10635)
# Cytochrome P450 2C9 = Cytochrome P450 2C9 (Homo sapiens, UniProt P11712)
Papp B→A [1] [×10⁻⁶ cm/s],solubility thermodynamic [2] [µM],Papp A→B (in vitro) [×10⁻⁶ cm/s],fraction unbound [8],SMILES,also measured
5.7,77,4.5,,NC(=O)n1cc(NC(=O)N2[C@@H]3C[C@@H]3C[C@H]2C(=O)Nc2cccc(OC(F)(F)F)c2)c2ccccc21,
8,7,0.75,,NC(=O)n1cc(NC(=O)N2C[C@H](F)C[C@H]2C(=O)Nc2cccc(OC(F)(F)F)c2)c2ccccc21,
,,,,Cn1cc(NC(=O)N2CCC[C@H]2C(=O)Nc2cccc(OC(F)(F)F)c2)c2ccccc21,IC50 (Complement factor D): 20 µM
6.3,17,6.1,,NC(=O)n1cc(NC(=O)N2CCC[C@H]2C(=O)Nc2cccc(OC(F)(F)F)c2)c2ccccc21,Activity (Salmonella typhimurium): Non-Toxic; Activity (Lymphocyte): Non-Toxic; clearance [3]: 21 mL/min/kg; half-life [4]: 1.4 h; AUC(0-t) at 8 h [5]: 4.99 µM·h; Cmax [6]: 1170 nM; bioavailability [7]: 25%
14.2,110,11.3,0.048,NC(=O)n1cc(NC(=O)N2[C@@H]3C[C@@H]3C[C@H]2C(=O)Nc2cccc(C(F)(F)F)n2)c2ccccc21,
6.5,10,5.1,,NC(=O)n1cc(NC(=O)N2[C@@H]3C[C@@H]3C[C@H]2C(=O)Nc2cccc(OC(F)(F)F)c2F)c2ccccc21,
7,46,10,< 0.01,NC(=O)n1cc(NC(=O)N2[C@@H]3C[C@@H]3C[C@H]2C(=O)Nc2cccc(C(F)(F)F)c2F)c2ccccc21,
10.3,57,9.6,0.036,NC(=O)n1cc(NC(=O)N2[C@@H]3C[C@@H]3C[C@H]2C(=O)Nc2cccc(Br)n2)c2ccccc21,
5.1,280,2.1,,NC(=O)n1cc(NC(=O)N2C[C@@H](N)C[C@H]2C(=O)Nc2cccc(OC(F)(F)F)c2)c2ccccc21,
,,,0.131,NC(=O)c1cn(CC(=O)N2[C@@H]3C[C@@H]3C[C@H]2C(=O)Nc2cccc(Br)n2)c2ccccc12,
17,23,0.77,,NC(=O)n1cc(NC(=O)N2C[C@@H](O)C[C@H]2C(=O)Nc2cccc(OC(F)(F)F)c2)c2ccccc21,
18.1,170,15.3,0.08,NC(=O)c1nn(CC(=O)N2[C@@H]3C[C@@H]3C[C@H]2C(=O)Nc2cccc(Br)n2)c2ccccc12,Activity (Salmonella typhimurium): Non-Toxic; Activity (Lymphocyte): Non-Toxic; concentration at 6 h [9]: 360 nM; concentration at 6 h [10]: 430 nM; concentration at 6 h [11]: 90 nM; inhibition (Mus musculus [12]): Active; inhibition (Mus musculus [13]): Active; inhibition (Cynomolgus monkey [14]): Active; INH (Cynomolgus monkey [15]): >0.5 µM; inhibition (Mus musculus [16]): Active; EC50 (Cynomolgus monkey [17]): 0.038 µM; IC50 [18]: > 30 µM; IC50 (Cytochrome P450 3A4): 17 µM; IC50 (Cytochrome P450 2D6): > 20 µM; IC50 (Cytochrome P450 2C9): > 20 µM
